# Measurements from ChEMBL document CHEMBL1140352, “Synthesis and structure-activity relationship of novel 6-aryl-1,4-dihydrobenzo[d][1,3]oxazine-2-thiones as progesterone receptor modulators leading to the potent and selective nonsteroidal progesterone receptor agonist tanaproget” (J Med Chem, 2005).
# pEC50, pIC50: −log10 of the molar value.
# Biological target: T1, Progesterone receptor (Homo sapiens, UniProt P06401)
# T1 sequence (P06401 whole entry): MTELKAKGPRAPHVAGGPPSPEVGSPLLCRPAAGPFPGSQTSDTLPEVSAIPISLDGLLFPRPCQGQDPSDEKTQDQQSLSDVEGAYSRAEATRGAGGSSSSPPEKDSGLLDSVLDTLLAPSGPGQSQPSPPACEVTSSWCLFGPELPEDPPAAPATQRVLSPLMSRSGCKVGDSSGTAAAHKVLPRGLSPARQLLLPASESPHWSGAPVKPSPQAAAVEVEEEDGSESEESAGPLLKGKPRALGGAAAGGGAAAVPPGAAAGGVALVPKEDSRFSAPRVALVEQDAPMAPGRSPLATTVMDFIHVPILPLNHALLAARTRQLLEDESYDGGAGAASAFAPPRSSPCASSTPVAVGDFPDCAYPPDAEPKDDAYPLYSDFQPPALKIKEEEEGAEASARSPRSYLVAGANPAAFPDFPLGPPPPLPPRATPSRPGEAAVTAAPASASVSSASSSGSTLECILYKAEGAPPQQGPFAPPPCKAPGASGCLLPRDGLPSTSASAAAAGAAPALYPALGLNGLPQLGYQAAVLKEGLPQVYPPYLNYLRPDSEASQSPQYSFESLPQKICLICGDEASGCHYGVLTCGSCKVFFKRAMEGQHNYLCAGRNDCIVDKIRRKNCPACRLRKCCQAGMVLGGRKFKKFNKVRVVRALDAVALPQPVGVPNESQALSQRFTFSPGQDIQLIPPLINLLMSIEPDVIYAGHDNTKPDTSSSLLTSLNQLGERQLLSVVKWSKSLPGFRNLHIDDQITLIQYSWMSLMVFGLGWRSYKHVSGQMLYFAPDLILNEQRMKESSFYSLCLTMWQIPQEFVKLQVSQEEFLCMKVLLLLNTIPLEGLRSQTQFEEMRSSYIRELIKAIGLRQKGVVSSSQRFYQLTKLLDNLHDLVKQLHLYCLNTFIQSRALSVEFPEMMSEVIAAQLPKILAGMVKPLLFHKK
# Test: Inhibition of human progesterone receptor
row,pIC50,Structure (SMILES)
1,7.14,CC(C)n1c(=O)[nH]c2ccc(-c3cccc(Cl)c3)cc21

# Test system: T47D
# Test: Effective concentration against alkaline phosphatase activity in human T47D breast carcinoma cell line
# Assay type: functional, cell-based
row,pEC50,Structure (SMILES)
1,10.00,CCC1(CC)OC(S)=Nc2ccc(-c3ccc(C#N)n3C)cc21
2,9.30,Cn1c(C#N)ccc1-c1ccc2c(c1)C1(CCC1)OC(S)=N2
3,8.92,CC1(C)OC(S)=Nc2ccc(-c3coc(C#N)c3)cc21
4,7.68,CN1C(=S)OC(C)(C)c2cc(-c3ccc(C#N)[nH]3)ccc21
5,9.46,Cn1c(C#N)ccc1-c1ccc2c(c1)C(C)(c1cccs1)OC(S)=N2 (configuration not stated)
6,7.64,CC1Nc2ccc(-c3ccc(F)c(C#N)c3)cc2C(C)(C)O1 (configuration not stated)
7,10.00,CCC1(C)OC(S)=Nc2ccc(-c3ccc(C#N)n3C)cc21 (configuration not stated)
8,9.82,CC1(C)OC(=S)Nc2ccc(-c3ccc(C#N)[nH]3)cc21
9,9.82,Cn1c(C#N)ccc1-c1ccc2c(c1)C(C)(C)OC(=S)N2 [TANAPROGET]
10,8.96,Cn1c(C#N)ccc1-c1ccc2c(c1)C(C)(C)OC(=O)N2
11,9.40,CC1(C)OC(S)=Nc2ccc(-c3csc(C#N)c3)cc21
